# Values quoted from earlier work in patent US20080188497A1, “Dipyridamole, Acetylsalicylic Acid, and Angiotensin II Antagonist Pharmaceutical Compositions” (Boehringer Ingelheim International GmbH, priority 2003, published 2008).
# Conditions: ESPS-2 clinical study; compared with low-dose aspirin / aspirin alone
smiles,measurement,value
"OCCN(CCO)c1nc(N2CCCCC2)c2nc(N(CCO)CCO)nc(N3CCCCC3)c2n1 [dipyridamole, 2,6-bis(diethanolamino)-4,8-dipiperidinopyrimido[5,4-d]pyrimidine]",reduction of stroke risk,as effective as low-dose aspirin
